Measured values reported in patent US10125098B2, “Therapeutic compounds and methods of use thereof” (GENENTECH, INC., priority 2014, dated 2018).
Like-named read-outs stand apart in the source and are kept apart here.

Legend:
hNav1.7 = biological target: T1, hNav1.7 (Homo sapiens, UniProt Q15858); assay: Tritiated compound binding (LBA) to membranes from cells expressing hNav1.7 and the β1 subunit, competitive binding; conditions: competitive binding vs 100 pM [3H]compound, 18 h, room temperature, membranes with hNav1.7 and β1 subunit
T1 construct: expressed in transfected cells
T1 sequence (Q15858 1-1977 isoform Q15858-3): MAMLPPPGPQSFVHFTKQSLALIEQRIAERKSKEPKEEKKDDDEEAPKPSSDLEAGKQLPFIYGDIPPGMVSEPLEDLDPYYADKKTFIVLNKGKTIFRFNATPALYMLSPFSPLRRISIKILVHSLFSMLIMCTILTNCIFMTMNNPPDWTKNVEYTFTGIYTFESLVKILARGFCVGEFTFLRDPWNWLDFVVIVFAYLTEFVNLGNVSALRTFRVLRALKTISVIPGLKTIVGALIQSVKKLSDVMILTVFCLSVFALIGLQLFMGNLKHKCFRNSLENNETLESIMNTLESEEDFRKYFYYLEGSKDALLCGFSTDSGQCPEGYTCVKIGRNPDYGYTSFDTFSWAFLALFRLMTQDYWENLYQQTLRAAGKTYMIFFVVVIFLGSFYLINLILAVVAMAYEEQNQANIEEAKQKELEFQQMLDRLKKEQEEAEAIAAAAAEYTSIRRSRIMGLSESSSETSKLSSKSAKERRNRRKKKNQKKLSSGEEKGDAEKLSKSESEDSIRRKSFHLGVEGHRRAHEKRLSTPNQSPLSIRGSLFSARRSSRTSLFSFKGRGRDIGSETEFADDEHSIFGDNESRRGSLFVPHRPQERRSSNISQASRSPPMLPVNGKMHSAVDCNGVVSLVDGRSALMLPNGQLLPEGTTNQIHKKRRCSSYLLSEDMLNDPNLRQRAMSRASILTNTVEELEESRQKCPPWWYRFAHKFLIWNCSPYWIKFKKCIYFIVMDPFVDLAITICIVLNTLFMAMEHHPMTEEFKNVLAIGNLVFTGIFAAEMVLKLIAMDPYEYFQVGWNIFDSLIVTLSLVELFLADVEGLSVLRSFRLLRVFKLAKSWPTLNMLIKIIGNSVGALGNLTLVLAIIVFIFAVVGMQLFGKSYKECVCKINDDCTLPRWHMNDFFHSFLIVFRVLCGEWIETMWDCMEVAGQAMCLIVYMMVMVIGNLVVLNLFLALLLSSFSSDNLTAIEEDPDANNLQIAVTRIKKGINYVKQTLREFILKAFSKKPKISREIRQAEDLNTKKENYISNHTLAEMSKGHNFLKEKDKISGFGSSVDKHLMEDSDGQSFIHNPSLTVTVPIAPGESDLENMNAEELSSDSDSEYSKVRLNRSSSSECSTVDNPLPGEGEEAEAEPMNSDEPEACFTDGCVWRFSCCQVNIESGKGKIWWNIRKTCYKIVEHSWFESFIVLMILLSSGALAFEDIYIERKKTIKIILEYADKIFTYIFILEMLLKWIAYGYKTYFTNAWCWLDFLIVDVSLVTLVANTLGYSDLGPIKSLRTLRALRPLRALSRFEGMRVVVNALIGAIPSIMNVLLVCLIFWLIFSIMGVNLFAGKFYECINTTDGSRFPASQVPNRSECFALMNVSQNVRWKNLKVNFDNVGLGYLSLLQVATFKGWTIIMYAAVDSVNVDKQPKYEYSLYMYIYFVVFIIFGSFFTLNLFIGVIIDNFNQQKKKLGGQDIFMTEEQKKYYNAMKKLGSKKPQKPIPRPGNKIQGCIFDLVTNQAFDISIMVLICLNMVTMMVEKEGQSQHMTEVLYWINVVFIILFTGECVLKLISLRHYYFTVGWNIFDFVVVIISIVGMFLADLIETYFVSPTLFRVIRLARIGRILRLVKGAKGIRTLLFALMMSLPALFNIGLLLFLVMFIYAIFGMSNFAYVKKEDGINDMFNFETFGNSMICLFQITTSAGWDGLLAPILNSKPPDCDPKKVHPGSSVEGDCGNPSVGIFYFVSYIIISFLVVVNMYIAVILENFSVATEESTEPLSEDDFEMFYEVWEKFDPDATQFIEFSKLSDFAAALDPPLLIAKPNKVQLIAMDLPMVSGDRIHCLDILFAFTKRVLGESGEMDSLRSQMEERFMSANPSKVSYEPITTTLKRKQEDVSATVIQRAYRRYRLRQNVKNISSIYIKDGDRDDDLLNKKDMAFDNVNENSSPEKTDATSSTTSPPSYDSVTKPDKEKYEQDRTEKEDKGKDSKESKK
T1 sequence (Q07699 19-218 partner): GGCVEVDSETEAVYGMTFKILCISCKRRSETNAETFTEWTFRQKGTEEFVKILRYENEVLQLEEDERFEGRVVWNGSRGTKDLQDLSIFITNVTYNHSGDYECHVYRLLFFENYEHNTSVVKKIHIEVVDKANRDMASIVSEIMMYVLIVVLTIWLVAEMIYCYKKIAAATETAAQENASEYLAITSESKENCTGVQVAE
Procedure, shortened: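 Membranes from cells expressing hNav1.7 with β1 were incubated 18 h at room temperature with 100 pM tritiated formula (I) compound and increasing test compound, in 100 mM NaCl, 20 mM Tris HCl pH 7.4, 0.01% BSA.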

NaV1.5 = biological target: T2, NaV1.5 (Homo sapiens, UniProt Q14524); assay: Patch voltage clamp electrophysiology assay (EP), NaV1.5; type: cell-based; conditions: HEK-293 cells stably expressing NaV1.5 with β1 subunit, whole-cell patch clamp, membrane potential −60 mV (inactivated state)
T2 construct: permanently transfected with an expression vector containing the full-length cDNA coding for the desired human sodium channel α-subunit; expressed in transfected cells; host or cells: HEK-293
T2 sequence (Q14524 whole entry): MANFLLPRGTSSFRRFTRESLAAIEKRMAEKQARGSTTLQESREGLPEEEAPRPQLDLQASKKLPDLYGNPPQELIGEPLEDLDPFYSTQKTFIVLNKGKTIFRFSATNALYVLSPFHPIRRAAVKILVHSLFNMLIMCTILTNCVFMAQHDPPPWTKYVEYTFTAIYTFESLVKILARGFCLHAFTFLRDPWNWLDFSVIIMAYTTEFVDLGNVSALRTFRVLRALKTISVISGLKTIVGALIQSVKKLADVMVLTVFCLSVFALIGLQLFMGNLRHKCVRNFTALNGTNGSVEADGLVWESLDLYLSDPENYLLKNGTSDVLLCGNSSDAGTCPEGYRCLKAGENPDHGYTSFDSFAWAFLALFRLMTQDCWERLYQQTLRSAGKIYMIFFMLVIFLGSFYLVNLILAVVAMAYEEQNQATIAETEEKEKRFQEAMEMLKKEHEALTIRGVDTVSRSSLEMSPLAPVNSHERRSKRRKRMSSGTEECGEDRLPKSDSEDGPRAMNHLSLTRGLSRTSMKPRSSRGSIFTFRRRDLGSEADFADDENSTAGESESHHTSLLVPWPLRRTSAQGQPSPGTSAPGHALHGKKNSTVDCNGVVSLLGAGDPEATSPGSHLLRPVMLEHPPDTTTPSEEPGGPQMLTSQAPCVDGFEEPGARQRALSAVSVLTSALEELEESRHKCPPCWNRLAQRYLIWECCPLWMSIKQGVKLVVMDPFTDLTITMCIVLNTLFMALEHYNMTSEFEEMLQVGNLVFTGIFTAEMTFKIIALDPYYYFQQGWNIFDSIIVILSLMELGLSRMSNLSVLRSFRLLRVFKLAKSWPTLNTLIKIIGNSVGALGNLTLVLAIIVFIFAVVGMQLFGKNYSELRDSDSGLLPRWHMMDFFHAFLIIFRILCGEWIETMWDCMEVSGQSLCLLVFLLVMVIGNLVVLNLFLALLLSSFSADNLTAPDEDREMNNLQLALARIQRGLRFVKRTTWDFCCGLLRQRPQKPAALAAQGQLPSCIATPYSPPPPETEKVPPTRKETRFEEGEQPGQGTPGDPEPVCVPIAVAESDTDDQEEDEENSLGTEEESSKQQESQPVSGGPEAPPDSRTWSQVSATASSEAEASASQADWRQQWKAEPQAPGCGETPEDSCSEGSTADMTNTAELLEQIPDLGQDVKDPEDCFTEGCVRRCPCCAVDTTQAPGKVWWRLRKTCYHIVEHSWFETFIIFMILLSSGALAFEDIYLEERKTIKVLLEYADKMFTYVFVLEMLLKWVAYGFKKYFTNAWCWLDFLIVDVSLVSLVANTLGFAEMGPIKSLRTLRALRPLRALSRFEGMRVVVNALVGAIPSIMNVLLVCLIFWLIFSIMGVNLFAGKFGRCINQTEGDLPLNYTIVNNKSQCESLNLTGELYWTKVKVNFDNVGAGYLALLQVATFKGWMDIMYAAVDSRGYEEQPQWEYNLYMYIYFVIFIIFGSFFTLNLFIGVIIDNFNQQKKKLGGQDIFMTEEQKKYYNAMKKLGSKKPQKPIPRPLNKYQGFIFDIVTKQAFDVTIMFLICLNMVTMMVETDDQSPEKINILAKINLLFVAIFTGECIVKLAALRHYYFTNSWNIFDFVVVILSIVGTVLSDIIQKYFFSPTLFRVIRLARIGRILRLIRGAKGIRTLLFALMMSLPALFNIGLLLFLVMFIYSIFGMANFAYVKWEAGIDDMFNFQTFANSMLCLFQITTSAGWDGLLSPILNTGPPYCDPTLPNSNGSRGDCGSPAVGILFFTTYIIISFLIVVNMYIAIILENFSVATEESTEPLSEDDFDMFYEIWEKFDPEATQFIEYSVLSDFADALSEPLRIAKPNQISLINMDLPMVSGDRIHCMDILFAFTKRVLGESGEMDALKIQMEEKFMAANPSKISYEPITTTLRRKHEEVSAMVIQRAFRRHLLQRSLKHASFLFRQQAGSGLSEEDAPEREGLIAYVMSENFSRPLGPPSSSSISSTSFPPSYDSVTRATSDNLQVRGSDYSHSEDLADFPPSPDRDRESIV
Procedure, shortened: (§1)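 HEK-293 cells stably expressing human α-subunit with β1; whole-cell patch clamp (PatchXpress or manual), ambient temperature, pH 7.4 external NaCl, CsF internal. Held at −60 mV (full inactivation), stepped to −150 mV for 20 ms, then test pulse; percent current decrease after compound wash-on taken as block.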

human NaV1.7 = biological target: T3, human NaV1.7 (Homo sapiens, UniProt Q15858); assay: Patch voltage clamp electrophysiology assay (EP), NaV1.7; type: cell-based; conditions: HEK-293 cells stably expressing NaV1.7 with β1 subunit; whole-cell patch clamp, membrane potential −60 mV (inactivated state)
T3 construct: permanently transfected with an expression vector containing the full-length cDNA coding for the desired human sodium channel α-subunit; expressed in transfected cells; host or cells: HEK-293
T3 sequence (Q15858 1-1977 isoform Q15858-3): as the sequence (Q15858 1-1977 isoform Q15858-3) above
T3 sequence (Q07699 19-218 partner): as the sequence (Q07699 19-218 partner) above
Procedure, shortened: as §1

| Structure (SMILES) | IC50 (hNav1.7) | IC50 (NaV1.5; read-out: Nav1.5) | IC50 (human NaV1.7) | IC50 (NaV1.5; human, HEK-293 cells stably expressing human NaV1.5 with β1 subunit, pH 7.4) |
| --- | --- | --- | --- | --- |
| C[C@H]1OCN(C(=O)c2cc(C3CC3)c(OCC3CCN(Cc4cc(C(F)(F)F)cc(Cl)c4F)CC3)cc2F)[C@@H]1C(=O)O [Example 227, (4S,5R)-3-(4-((1-(3-chloro-2-fluoro-5-(trifluoromethyl)benzyl)piperidin-4-yl)methoxy)-5-cyclopropyl-2-fluorobenzoyl)-5-methyloxazolidine-4-carboxylic acid] | 29 nM | 16000 nM | 65 nM |  |
| C[C@H]1OCN(C(=O)c2cc(C3CC3)c(OCC3CCN(Cc4cc(C(F)(F)F)ccc4Cl)CC3)cc2F)[C@@H]1C(=O)O [Example 228, (4S,5R)-3-(4-((1-(2-chloro-5-(trifluoromethyl)benzyl)piperidin-4-yl)methoxy)-5-cyclopropyl-2-fluorobenzoyl)-5-methyloxazolidine-4-carboxylic acid] | 17 nM | 25000 nM | 87 nM |  |
| C[C@H]1OCN(C(=O)c2cc(C3CC3)c(OCC3(C)CN([C@H](c4ccccc4)c4cc(Cl)cc(Cl)c4)C3)cc2F)[C@@H]1C(=O)O [Example 229, (4S,5R)-3-(5-cyclopropyl-4-((1-((R)-(3,5-dichlorophenyl)(phenyl)methyl)-3-methylazetidin-3-yl)methoxy)-2-fluorobenzoyl)-5-methyloxazolidine-4-carboxylic acid] | 6.9 nM |  | 270 nM | ≥ 30000 nM |
| C[C@H]1[C@H](O)CN(C(=O)c2cc(C3CC3)c(OCC34CC5CC(CC(C5)C3)C4)cc2F)[C@@H]1C(=O)O [Example 230, (2S, 3R, 4S)-1-(4-(adamantan-1-ylmethoxy)-5-cyclopropyl-2-fluorobenzoyl)-4-hydroxy-3-methylpyrrolidine-2-carboxylic acid] | 21 nM | 11000 nM | 32 nM |  |
| C[C@@H]1[C@H](O)CN(C(=O)c2cc(C3CC3)c(OCC34CC5CC(CC(C5)C3)C4)cc2F)[C@@H]1C(=O)O [Example 231, (2S,3S,4S)-1-(4-(adamantan-1-ylmethoxy)-5-cyclopropyl-2-fluorobenzoyl)-4-hydroxy-3-methylpyrrolidine-2-carboxylic acid] | 290 nM | 15000 nM | 360 nM |  |
